Consider 49 compounds from US12581252B2, “Substituted pyrrolo[3,4-b]pyridines as PI3K-α inhibitors” (Relay Therapeutics, Inc., priority 2020, dated 2026).

The structures appear in SMILES notation.

One experiment addresses H1047R PIK3CA enzyme (Homo sapiens, UniProt P42336, H1047R). Kind of experiment: ADP-Glo Biochemical PIK3CA Kinase Assay.
A short description of a further experiment: cells. Conditions: Homo sapiens, MCF-10A, read-out: MCF10A IC50.

H1047R PIK3CA enzyme, sequence (P42336 whole entry H1047R): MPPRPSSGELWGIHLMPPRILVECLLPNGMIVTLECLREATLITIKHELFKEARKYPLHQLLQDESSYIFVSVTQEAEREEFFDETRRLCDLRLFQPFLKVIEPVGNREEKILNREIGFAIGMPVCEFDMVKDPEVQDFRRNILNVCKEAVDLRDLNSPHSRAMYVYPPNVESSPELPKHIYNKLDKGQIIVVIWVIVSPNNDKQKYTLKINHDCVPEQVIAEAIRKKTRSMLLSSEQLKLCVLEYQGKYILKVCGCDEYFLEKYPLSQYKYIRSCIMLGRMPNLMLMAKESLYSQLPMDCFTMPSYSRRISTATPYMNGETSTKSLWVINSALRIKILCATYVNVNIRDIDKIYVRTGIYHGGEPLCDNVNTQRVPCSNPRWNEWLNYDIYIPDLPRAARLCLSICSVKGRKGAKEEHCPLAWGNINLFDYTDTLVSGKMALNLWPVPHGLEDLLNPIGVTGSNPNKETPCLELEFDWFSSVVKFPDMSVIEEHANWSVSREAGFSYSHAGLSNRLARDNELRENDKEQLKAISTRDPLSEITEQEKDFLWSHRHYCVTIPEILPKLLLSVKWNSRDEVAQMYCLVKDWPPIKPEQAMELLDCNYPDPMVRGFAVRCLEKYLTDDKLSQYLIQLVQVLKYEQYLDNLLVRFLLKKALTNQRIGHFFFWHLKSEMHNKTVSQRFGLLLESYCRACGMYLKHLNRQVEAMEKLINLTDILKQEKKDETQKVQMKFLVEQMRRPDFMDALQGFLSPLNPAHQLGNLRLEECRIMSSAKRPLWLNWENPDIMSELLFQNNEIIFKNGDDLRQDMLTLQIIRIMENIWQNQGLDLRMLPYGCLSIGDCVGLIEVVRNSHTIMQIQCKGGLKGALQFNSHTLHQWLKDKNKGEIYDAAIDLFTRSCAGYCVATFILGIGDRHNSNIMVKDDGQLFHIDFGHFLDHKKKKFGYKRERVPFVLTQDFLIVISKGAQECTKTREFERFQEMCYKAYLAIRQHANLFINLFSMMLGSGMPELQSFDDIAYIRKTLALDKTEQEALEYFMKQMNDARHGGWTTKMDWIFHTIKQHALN
H1047R PIK3CA enzyme, sequence (P27986 whole entry partner): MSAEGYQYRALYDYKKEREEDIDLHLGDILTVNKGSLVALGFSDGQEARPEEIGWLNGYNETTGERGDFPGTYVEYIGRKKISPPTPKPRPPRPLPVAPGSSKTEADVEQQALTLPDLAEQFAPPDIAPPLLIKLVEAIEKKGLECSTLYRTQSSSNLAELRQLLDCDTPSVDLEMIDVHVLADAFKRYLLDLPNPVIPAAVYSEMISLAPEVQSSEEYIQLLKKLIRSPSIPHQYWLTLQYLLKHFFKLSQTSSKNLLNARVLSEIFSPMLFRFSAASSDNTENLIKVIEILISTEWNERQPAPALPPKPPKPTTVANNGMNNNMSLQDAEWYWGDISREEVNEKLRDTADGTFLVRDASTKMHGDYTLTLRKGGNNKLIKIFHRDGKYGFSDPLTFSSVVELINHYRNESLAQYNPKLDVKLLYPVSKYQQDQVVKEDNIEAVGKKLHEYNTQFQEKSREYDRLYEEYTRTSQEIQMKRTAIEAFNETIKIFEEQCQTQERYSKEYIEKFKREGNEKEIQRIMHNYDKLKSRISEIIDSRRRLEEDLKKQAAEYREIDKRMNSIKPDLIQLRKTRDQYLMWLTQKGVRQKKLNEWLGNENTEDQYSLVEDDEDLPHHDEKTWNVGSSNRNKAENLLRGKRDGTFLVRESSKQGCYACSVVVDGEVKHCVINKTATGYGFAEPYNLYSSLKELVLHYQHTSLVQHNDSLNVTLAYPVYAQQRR

For the compound `O=C1NC(c2cc(F)ccc2Cl)c2c(NC(=O)N3CC(C(F)F)c4ccccc43)cccc21` (mixture of isomers) [Compound I-2246], the IC50 against H1047R PIK3CA enzyme was at most 100 nM; in “cells”, 1000 to 5000 nM.

With `O=C1NC(c2cc(F)ccc2Cl)c2c(NC(=O)N3CC(O)c4cc(F)ccc43)cc(-n3cncn3)cc21` (mixture of isomers) [Compound I-2414], the values for the IC50 against H1047R PIK3CA enzyme and in “cells” were 100 to 500 nM and 10000 to 36000 nM, respectively.

`O=C1NC(c2cc(F)ccc2Cl)c2c(NC(=O)N3CC(O)(C(F)F)c4ccccc43)cccc21` (mixture of isomers) [Compound I-2423]: the IC50 was at most 100 nM against H1047R PIK3CA enzyme and 1000 to 5000 nM in the experiment “cells”.

As to `O=C1NC(c2cc(F)ccc2Cl)c2c(NC(=O)N3CC(O)c4ccc(Cl)cc43)cccc21` (mixture of isomers) [Compound I-2464], the IC50 at H1047R PIK3CA enzyme is at most 100 nM; in “cells” it was 5000 to 10000 nM.

With `O=C1NC(c2cc(F)ccc2Cl)c2c(NC(=O)N3CC(O)(C(F)(F)F)c4cc(F)ccc43)cc(Cl)cc21` (mixture of isomers) [Compound I-2482], the IC50 against H1047R PIK3CA enzyme is at most 100 nM; in “cells”, under 1000 nM.

Turning to `O=C1NC(c2cc(F)ccc2Cl)c2c(NC(=O)N3CC(O)(C(F)(F)F)c4ccccc43)cc(Cl)cc21` (mixture of isomers) [Compound I-2483], the IC50 is at most 100 nM at H1047R PIK3CA enzyme and under 1000 nM in the experiment “cells”.

Consider `O=C1NC(c2cc(F)ccc2Cl)c2c(NC(=O)N3CC(O)(C(F)F)c4cc(F)ccc43)cccc21` (mixture of isomers) [Compound I-2488], for which the IC50 on H1047R PIK3CA enzyme was at most 100 nM; in “cells”, 1000 to 5000 nM.

With `N#CC1(COc2cc(NC(=O)N3CC(O)c4cc(F)ccc43)c3c(c2)C(=O)NC3c2cc(F)ccc2Cl)CC1` (mixture of isomers) [Compound I-2489], the IC50 is at most 100 nM against H1047R PIK3CA enzyme and 5000 to 10000 nM in “cells”.

Consider `N#CCc1cc(NC(=O)N2CC(O)(C(F)(F)F)c3ccccc32)c2c(c1)C(=O)NC2c1cc(F)ccc1Cl` (mixture of isomers) [Compound I-2585], for which the IC50 against H1047R PIK3CA enzyme is at most 100 nM; in the experiment “cells”, under 1000 nM.

As to `N#CCc1cc(NC(=O)N2CC(O)(C(F)(F)F)c3cc(F)ccc32)c2c(c1)C(=O)NC2c1cc(F)ccc1Cl` (mixture of isomers) [Compound I-2596], the IC50 on H1047R PIK3CA enzyme is at most 100 nM; in the experiment “cells” it was under 1000 nM.

Turning to `CNC(=O)c1cc(NC(=O)c2csc3ccccc23)c2c(c1)C(=O)NC2c1ccccc1C` (racemic) [Compound I-6, 7-(Benzo[b]thiophene-3-carboxamido)-N-methyl-3-oxo-1-(o-tolyl)isoindoline-5-carboxamide], the 50% inhibitory concentration (IC50) at H1047R PIK3CA enzyme was at most 100 nM; in the experiment “cells”, under 1000 nM.

`N#CCc1cc(NC(=O)c2cc(F)cc(C(F)(F)F)c2)c2c(c1)C(=O)N[C@H]2c1cc(F)ccc1Cl` (racemic) [Compound I-1088]: the figures for the IC50 against H1047R PIK3CA enzyme and in the experiment “cells” were at most 100 nM and under 1000 nM, respectively.

Consider `O=C(Nc1cc(-c2ccc3ncnn3c2)cc2c1[C@H](c1cc(F)ccc1Cl)NC2=O)c1cc(F)cc(C(F)(F)F)c1` (single isomer, unassigned) [Compound I-945], for which the IC50 against H1047R PIK3CA enzyme is at most 100 nM; in the experiment “cells”, under 1000 nM.

As for `Cn1cc(Nc2cc(NC(=O)c3cc(F)cc(C(F)(F)F)c3)c3c(c2)C(=O)N[C@H]3c2cc(F)ccc2Cl)cn1` (single isomer, unassigned) [Compound I-997], the IC50 was at most 100 nM on H1047R PIK3CA enzyme and under 1000 nM in the experiment “cells”.

Turning to `N#Cc1ccc(-c2cc(NC(=O)c3cc(F)cc(C(F)(F)F)c3)c3c(c2)C(=O)N[C@@H]3c2cc(F)ccc2Cl)cn1` (single isomer, unassigned) [Compound I-1000], the IC50 at H1047R PIK3CA enzyme is at most 100 nM; in “cells”, under 1000 nM.

On to `O=C(Nc1cc(-c2cnn(C3CC3)c2)cc2c1[C@H](c1cc(F)ccc1Cl)NC2=O)c1cc(F)cc(C(F)(F)F)c1` (single isomer, unassigned) [Compound I-1022], for which the IC50 against H1047R PIK3CA enzyme was at most 100 nM; in “cells”, under 1000 nM.

With `O=C1N[C@@H](c2cc(F)ccc2Cl)c2c(NC(=O)N3C[C@@H](O)c4ccccc43)cc(Br)cc21` (single isomer, unassigned) [Compound I-1514], the IC50 against H1047R PIK3CA enzyme was at most 100 nM; in the experiment “cells”, 1000 to 5000 nM.

`N#Cc1c(-c2cc(NC(=O)c3cc(F)cc(C(F)(F)F)c3)c3c(c2)C(=O)N[C@@H]3c2cc(F)ccc2Cl)ccc2ncnn12` (single isomer, unassigned) [Compound I-1647]: in “cells”, the IC50 lay in the range of 1000 to 5000 nM.

For the compound `N#Cc1c(-c2cc(NC(=O)c3cc(F)cc(C(F)(F)F)c3)c3c(c2)C(=O)N[C@H]3c2cc(F)ccc2Cl)ccc2ncnn12` (single isomer, unassigned) [Compound I-1648], the IC50 in the experiment “cells” was under 1000 nM.

As for `O=C(Nc1cc(-c2cnn(C(F)F)c2)cc2c1[C@H](c1cc(F)ccc1Cl)NC2=O)c1cc(F)cc(C(F)(F)F)c1` (single isomer, unassigned) [Compound I-1740], the IC50 against H1047R PIK3CA enzyme is at most 100 nM; in the experiment “cells”, under 1000 nM.

With `CC(C)(O)c1cc(NC(=O)N2C[C@@H](O)c3ccccc32)c2c(c1)C(=O)N[C@H]2c1cc(F)ccc1Cl` (single isomer, unassigned) [Compound I-2124], the half-inhibitory concentration (IC50) on H1047R PIK3CA enzyme was at most 100 nM; in “cells”, 1000 to 5000 nM.

Take `O=C1N[C@@H](c2cc(F)ccc2Cl)c2c(NC(=O)N3C[C@@H](O)c4cc(F)ccc43)cccc21` (single isomer, unassigned) [Compound I-2127]: the IC50 is at most 100 nM against H1047R PIK3CA enzyme and under 1000 nM in the experiment “cells”.

Regarding `Nc1cc(NC(=O)N2C[C@@H](O)c3ccccc32)c2c(c1)C(=O)N[C@H]2c1cc(F)ccc1Cl` (single isomer, unassigned) [Compound I-2133], the IC50 at H1047R PIK3CA enzyme was at most 100 nM; in “cells” it was under 1000 nM.

Regarding `O=C1N[C@@H](c2cc(F)ccc2Cl)c2c(NC(=O)N3C[C@H](O)c4c(F)cccc43)cccc21` (single isomer, unassigned) [Compound I-2142], the values for the IC50 against H1047R PIK3CA enzyme and in “cells” were at most 100 nM and under 1000 nM, respectively.

Regarding `C[C@]1(O)CN(C(=O)Nc2cccc3c2[C@H](c2cc(F)ccc2Cl)NC3=O)c2ccccc21` (single isomer, unassigned) [Compound I-2205], the 50% inhibitory concentration (IC50) against H1047R PIK3CA enzyme was at most 100 nM; in the experiment “cells”, under 1000 nM.

Take `O=C(Nc1cc(-c2cn3ncnc3cn2)cc2c1[C@H](c1cc(F)ccc1C(F)F)NC2=O)c1cc(F)cc(Cl)c1` (single isomer, unassigned) [Compound I-2259]: the IC50 is at most 100 nM on H1047R PIK3CA enzyme and under 1000 nM in “cells”.

For `C[C@]1(C(=O)Nc2cc(Br)cc3c2[C@@H](c2cc(F)ccc2Cl)NC3=O)CCC[C@@H](C(F)(F)F)C1` (single isomer, unassigned) [Compound I-2261], the IC50 at H1047R PIK3CA enzyme was at most 100 nM; in the experiment “cells”, under 1000 nM.

As to `C[C@@]1(C(=O)Nc2cc(Br)cc3c2[C@H](c2cc(F)ccc2Cl)NC3=O)CCC[C@H](C(F)(F)F)C1` (single isomer, unassigned) [Compound I-2262], the IC50 against H1047R PIK3CA enzyme fell in the range of 100 to 500 nM; in the experiment “cells” it was 1000 to 5000 nM.

As to `O=C1N[C@@H](c2cc(F)ccc2Cl)c2c(NC(=O)N3C[C@@H](O)c4cc(F)c(F)cc43)cccc21` (single isomer, unassigned) [Compound I-2293], the IC50 against H1047R PIK3CA enzyme is at most 100 nM; in “cells” it was under 1000 nM.

As for `Nc1nn(C(=O)Nc2cccc3c2C(c2cc(F)ccc2Cl)NC3=O)c2ccc(F)cc12` (stereo not shown) [Compound I-2431], the IC50 against H1047R PIK3CA enzyme was 500 to 1000 nM.

`CCN(C(=O)Nc1cccc2c1C(c1cc(F)ccc1Cl)NC2=O)c1ccc(F)cc1` (stereo not shown) [Compound I-2434]: the IC50 against H1047R PIK3CA enzyme was in the range of 10000 to 100000 nM.

Turning to `CN(C(=O)Nc1cccc2c1C(c1cc(F)ccc1Cl)NC2=O)c1ccc(F)cc1` (stereo not shown) [Compound I-2435], at H1047R PIK3CA enzyme, the IC50 was in the range of 10000 to 100000 nM.

With `O=C1NC(c2cc(F)ccc2Cl)c2c(NC(=O)N3CCc4cc(C(F)(F)F)ccc43)cccc21` (stereo not shown) [Compound I-2436], at H1047R PIK3CA enzyme, the IC50 lay in the range of 10000 to 100000 nM.

With `COc1ccc2c(c1)CCN2C(=O)Nc1cccc2c1C(c1cc(F)ccc1Cl)NC2=O` (stereo not shown) [Compound I-2437], the IC50 at H1047R PIK3CA enzyme was 10000 to 100000 nM.

`Cc1cccc2c1CCN2C(=O)Nc1cccc2c1C(c1cc(F)ccc1Cl)NC2=O` (stereo not shown) [Compound I-2438]: on H1047R PIK3CA enzyme, the IC50 lay within 1000 to 10000 nM.

Consider `COc1ccc2c(c1)N(C(=O)Nc1cccc3c1C(c1cc(F)ccc1Cl)NC3=O)CC2` (stereo not shown) [Compound I-2439], for which the IC50 against H1047R PIK3CA enzyme was 1000 to 10000 nM.

On H1047R PIK3CA enzyme, `Cc1ccc2c(c1)CCN2C(=O)Nc1cccc2c1C(c1cc(F)ccc1Cl)NC2=O` (stereo not shown) [Compound I-2440] had an IC50 of 10000 to 100000 nM.

Take `O=C1NC(c2cc(F)ccc2Cl)c2c(NC(=O)N3CCc4c(Cl)cccc43)cccc21` (stereo not shown) [Compound I-2442]: at H1047R PIK3CA enzyme, the IC50 lay within 1000 to 10000 nM.

At H1047R PIK3CA enzyme, `O=C1NC(c2cc(F)ccc2Cl)c2c(NC(=O)N3CCc4ccc(C(F)(F)F)cc43)cccc21` (stereo not shown) [Compound I-2447] showed an IC50 of 1000 to 10000 nM.

The compound `CC(C)c1cc(N)n(C(=O)Nc2cccc3c2C(c2cc(F)ccc2Cl)NC3=O)n1` (stereo not shown) [Compound I-2465] gave an IC50 at H1047R PIK3CA enzyme of 10000 to 100000 nM.

`CC(C)c1cc(N)nn1C(=O)Nc1cccc2c1C(c1cc(F)ccc1Cl)NC2=O` (stereo not shown) [Compound I-2466]: at H1047R PIK3CA enzyme, the 50% inhibitory concentration (IC50) is 10000 to 100000 nM.

`O=C1NC(c2cc(F)ccc2Cl)c2c(NC(=O)N3CCCC34CC4)cccc21` (stereo not shown) [Compound I-2467] gave an IC50 against H1047R PIK3CA enzyme of 1000 to 10000 nM.

As to `O=C1NC(c2cc(F)ccc2Cl)c2c(NC(=O)N3CCC4(CC4)C3)cccc21` (stereo not shown) [Compound I-2468], the IC50 on H1047R PIK3CA enzyme is 10000 to 100000 nM.

`Cc1ccc2c(c1)N(C(=O)Nc1cccc3c1C(c1cc(F)ccc1Cl)NC3=O)CC2` (stereo not shown) [Compound I-2470] yielded an IC50 at H1047R PIK3CA enzyme of 100 to 500 nM.

`O=C1NC(c2cc(F)ccc2Cl)c2c(NC(=O)N3CCc4ccc(OC(F)(F)F)cc43)cccc21` (stereo not shown) [Compound I-2480]: on H1047R PIK3CA enzyme, the IC50 lay in the range of 1000 to 10000 nM.

With `O=C1NC(c2cc(F)ccc2Cl)c2c(NC(=O)N3CCc4cc(OC(F)(F)F)ccc43)cccc21` (stereo not shown) [Compound I-2481], the IC50 against H1047R PIK3CA enzyme was 1000 to 10000 nM.

On to `CC1(Cc2cc(NC(=O)N3CC(O)c4cc(F)ccc43)c3c(c2)C(=O)NC3c2cc(F)ccc2Cl)COC1` (stereo not shown) [Compound I-2490], for which the IC50 against H1047R PIK3CA enzyme was in the range of 500 to 1000 nM.

With `O=C1NC(c2cc(F)ccc2Cl)c2c(NC(=O)N3CCc4c3cccc4C(F)(F)F)cccc21` (stereo not shown) [Compound I-2498], at H1047R PIK3CA enzyme, the half-inhibitory concentration (IC50) was in the range of 1000 to 10000 nM.

`CNc1cc(NC(=O)N2C[C@](O)(C(F)F)c3cc(F)ccc32)c2c(c1)C(=O)N[C@@H]2c1cc(F)ccc1Cl` [Compound I-2677] showed an IC50 on H1047R PIK3CA enzyme of at most 100 nM.
